{"source": "patent US20190151320A1", "about": "“APPLICATION OF MAPK SIGNALING PATHWAY INHIBITOR IN MANUFACTURE OF DRUGS FOR DELAYING DEGENERATION OF DOPAMINERGIC NEURONS” (FUZHOU UNIVERSITY, priority 2016, published 2019)", "test_system": "dopaminergic neurons in the PPL brain region", "assay": "Dopaminergic neuron morphology and quantity in PPL brain regions of PD model fruit flies after 30 days of drug feeding", "type": "in vivo, Drosophila melanogaster", "conditions": "fruit fly PD models (alpha-synuclein overexpression, Lrrk2 overexpression, Parkin mutation, Pink1 mutation); for effect on degenerative death/loss of dopaminergic neurons in the PPL brain region (morphology and quantity): 1 μg/mL in feed for 30 days", "method": "Animal models of PD caused by alpha-synuclein transgene overexpression, Lrrk2 transgene overexpression, Parkin gene mutation and Pink1 gene mutation were established in the four model groups. Each group includes 90 fruit flies and each group was further equally divided into three groups, drug-feeding groups and non-drug-feeding control group, for testing. Starting from imago at the age of 5 days, the drug-feeding group was continuously fed with 0.1 μg/mL, 1 μg/mL U0126 (U0126 is dissolved in 1% DMSO) for 30 days and the non-drug-feeding control group was fed with 1% DMSO as a solvent control. After 30 days of drug or control solvent feeding, the brains of fruit flies were dissected and the dopamine neurons were labeled by the whole-tissue immunostaining of the brains of the fruit flies with an anti-dopamine hydroxylase antibody. The morphology and quantity of the dopamine neurons in the PPL regions in the brains of the fruit flies were observed microscopically to determine the effect of U0126 on the dopaminergic neurons in the local brain regions.\nAnimal models of PD caused by alpha-synuclein transgene overexpression, Lrrk2 transgene overexpression, Parkin gene mutation and Pink1 gene mutation were established in the four model groups. Each group includes 90 fruit flies and each group was further equally divided into 2 drug-feeding groups and 1 non-drug-feeding control group for testing. […] The morphology and quantity of the dopamine neurons in the PPL regions in the brains of the fruit flies were observed microscopically to determine the effect of PD0325901 on the dopaminergic neurons in the local brain regions of the fruit flies.\nAnimal models of PD caused by alpha-synuclein transgene overexpression, Lrrk2 transgene overexpression, Parkin gene mutation and Pink1 gene mutation were established in the four model groups. […] The morphology and quantity of the dopamine neurons in the PPL regions in the brains of the fruit flies were observed microscopically to determine the effect of trametinib on the dopaminergic neurons in the local brain regions of the fruit flies."}
{"smiles": "O=C(NOC[C@H](O)CO)c1ccc(F)c(F)c1Nc1ccc(I)cc1F", "note": "[PD0325901]", "values": [{"measurement": "effect on degenerative death/loss of dopaminergic neurons in the PPL brain region (morphology and quantity)", "result": "can effectively reverse the degenerative loss of the dopaminergic neurons"}]}
{"smiles": "N#CC(=C(/N)Sc1ccccc1N)/C(C#N)=C(\\N)Sc1ccccc1N", "note": "[U0126]", "values": [{"measurement": "effect on degenerative death/loss of dopaminergic neurons in the PPL brain region (morphology and quantity)", "result": "can effectively reverse the degenerative death of the dopaminergic neurons"}]}
{"smiles": "CC(=O)Nc1cccc(-n2c(=O)n(C3CC3)c(=O)c3c(Nc4ccc(I)cc4F)n(C)c(=O)c(C)c32)c1", "note": "[trametinib]", "values": [{"measurement": "effect on degenerative death of dopaminergic neurons in the PPL brain region (morphology and quantity)", "setting": "16.24 μM/mL in feed for 30 days", "result": "can effectively reverse the degenerative death of the dopaminergic neurons"}]}
